Reference: ChEMBL document CHEMBL6120962, “New Mitochondria-Targeted Fisetin Derivative Compromises Mitophagy and Limits Survival of Drug-Induced Senescent Breast Cancer Cells” (J Med Chem, 2024)
Activity calls are given as the source filed them. The rule behind the calls is not given here.

Tests used:
[1] = Cytotoxicity against human MCF-10F cells assessed as effect on metabolic activity at 1 to 10 uM incubated for 24 hrs by MTT assay; assay type: toxicity, cell-based; details: dose 1-10 µM
Mitochondrial membrane [2] = test: Induction of mitochondrial membrane potential depolarization in human HCC1500 cells at 1 uM incubated for 24 hrs by 7-AAD staining based flow cytometric analysis; assay type: cell membranes
Mitochondrial membrane [3] = test: Induction of mitochondrial membrane potential depolarization in human HCC1428 cells at 1 uM incubated for 24 hrs by 7-AAD staining based flow cytometric analysis; assay type: cell membranes
Mitochondrial membrane [4] = test: Induction of mitochondrial membrane potential depolarization in human MCF-10F cells at 5 uM incubated for 24 hrs by 7-AAD staining based flow cytometric analysis; assay type: cell membranes
Mitochondrial membrane [5] = test: Induction of mitochondrial membrane potential depolarization in tamoxifen-induced senescent human CAMA-1 cells assessed as increase in depolarized dead cell level at 1 to 5 uM incubated for 24 hrs by 7-AAD staining based flow cytometric analysis; assay type: cell membranes; details: dose 1-5 µM
Mitochondrial membrane [6] = test: Induction of mitochondrial membrane potential depolarization in tamoxifen-induced senescent human MCF-10F cells assessed as increase in depolarized dead cell level at 1 to 5 uM incubated for 24 hrs by 7-AAD staining based flow cytometric analysis; assay type: cell membranes; details: dose 1-5 µM
HCC1428 [7] = test: Induction of mitochondrial dysfunction in tamoxifen-induced senescent human HCC1428 cells assessed as decrease in maximal respiration at 5 uM incubated for 6 hrs by real-time analysis; assay type: functional, cell-based
MCF-10F [8] = test: Induction of mitochondrial dysfunction in tamoxifen-induced senescent human MCF-10F cells assessed as decrease in coupling efficiency at 5 uM incubated for 6 hrs by real-time analysis; assay type: functional, cell-based
MCF-10F [9] = test: Induction of mitochondrial dysfunction in tamoxifen-induced senescent human MCF-10F cells assessed as increase in proton leak at 5 uM incubated for 6 hrs by real-time analysis; assay type: functional, cell-based
HCC1428 [10] = test: Induction of mitochondrial dysfunction in human HCC1428 cells assessed as increase in proton leak at 5 uM incubated for 6 hrs by real time analysis; assay type: functional, cell-based
MCF-10F [11] = test: Induction of mitochondrial dysfunction in human MCF-10F cells assessed as decrease in ATP production at 5 uM incubated for 6 hrs by real time analysis; assay type: functional, cell-based
MCF-10F [12] = test: Induction of mitochondrial dysfunction in human MCF-10F cells assessed as decrease in coupling efficiency at 5 uM incubated for 6 hrs by real time analysis; assay type: functional, cell-based
HCC1428 [13] = test: Induction of autophagosome formation in tamoxifen-induced senescent human HCC1428 cells assessed as increase in LC3B level at 1 to 5 uM by immunostaining based imaging cytometric analysis; assay type: functional, cell-based; details: dose 1-5 µM
HCC1428 [14] = test: Induction of alternative mitophagy in tamoxifen-induced senescent human HCC1428 cells assessed as increase in Rab9 level at 1 to 5 uM by immunostaining based imaging cytometric analysis; assay type: functional, cell-based; details: dose 1-5 µM
HCC1500 [15] = test: Induction of oxidative stress in tamoxifen-induced senescent human HCC1500 cells assessed as increase in mitochondrial superoxide production at 1 to 5 uM incubated for 24 hrs by MitoSOX red superoxide indicator based fluorescence analysis; assay type: functional, cell-based; details: dose 1-5 µM
HCC1428 [16] = test: Induction of oxidative stress in tamoxifen-induced senescent human HCC1428 cells assessed as increase in mitochondrial superoxide production at 1 to 5 uM incubated for 24 hrs by MitoSOX red superoxide indicator based fluorescence analysis; assay type: functional, cell-based; details: dose 1-5 µM
HCC1428 [17] = test: Induction of oxidative stress in tamoxifen-induced senescent human HCC1428 cells assessed as increase in mitochondrial SOD2 level at 1 to 5 uM incubated for 24 hrs by MitoSOX red superoxide indicator based fluorescence analysis; assay type: functional, cell-based; details: dose 1-5 µM
CAMA-1 = test: Induction of apoptosis in tamoxifen-induced senescent human CAMA-1 cells assessed as phosphatidylserine externalization at 1 to 5 uM incubated for 24 hrs by Annexin V-FITC staining based flow cytometric analysis; assay type: functional, cell-based; details: dose 1-5 µM
ZR-75-30 [18] = test: Induction of apoptosis in tamoxifen-induced senescent human ZR-75-30 cells assessed as phosphatidylserine externalization at 1 to 5 uM incubated for 24 hrs by Annexin V-FITC staining based flow cytometric analysis; assay type: functional, cell-based; details: dose 1-5 µM
ZR-75-30 [19] = test: Induction of […] in human tamoxifen-induced senescent human ZR-75-30 cells at 1 to 5 uM by incubated for 24 hrs Annexin V-FITC staining based flow cytometric analysis; assay type: functional, cell-based; details: dose 1-5 µM
MCF-10F [20] = test: Induction of apoptosis in human MCF-10F cells assessed as decrease in Bcl2 level at 1 to 5 uM incubated for 24 hrs by Western blot analysis; assay type: functional, cell-based; details: dose 1-5 µM
MCF-10F [21] = test: Effect on Bcl-rambo protein level in tamoxifen-induced senescent human MCF-10F cells at 1 to 5 uM incubated for 24 hrs by Western blot analysis; assay type: functional, cell-based; details: dose 1-5 µM
HCC1428 [22] = test: Induction of AMPK phosphorylation in tamoxifen-induced senescent human HCC1428 cells incubated for 24 hrs by immunostaining based imaging cytometric analysis; assay type: cell-based; details: filed as activator
ZR-75-30 [23] = test: Induction of apoptosis in tamoxifen-induced senescent human ZR-75-30 cells assessed as decrease in HSP90 level incubated for 24 hrs by immunostaining based imaging cytometric analysis; assay type: functional, cell-based
HCC1428 [24] = test: Induction of apoptosis in tamoxifen-induced senescent human HCC1428 cells assessed as decrease in phosphorylated AKT level at 1 to 5 uM incubated for 24 hrs by Western blotting analysis; assay type: functional, cell-based; details: dose 1-5 µM
HCC1428 [25] = test: Effect on phosphorylated to unphosphorylated AKT ratio in tamoxifen-induced senescent human HCC1428 cells assessed as decrease in phosphorylated AKT level at 1 to 5 uM incubated for 24 hrs by Western blotting analysis; assay type: functional, cell-based; details: dose 1-5 µM
HCC1500 [26] = test: Induction of senescence in human HCC1500 cells assessed as […] in beta-galactosidase activity at 5 uM incubated for 24 hrs by immunostaining based imaging cytometric analysis; assay type: functional, cell-based
HCC1500 [27] = test: Induction of senescence in human HCC1500 cells assessed as increase in IL-8 level at 5 uM incubated for 24 hrs by immunostaining based imaging cytometric analysis; assay type: functional, cell-based

CC(=O)Oc1ccc2c(=O)c(OCCCC[P+](c3ccccc3)(c3ccccc3)c3ccccc3)c(-c3ccc4c(c3)OC(c3ccccc3)(c3ccccc3)O4)oc2c1.[I-]
Activity [1]: Non-toxic | Activity (Mitochondrial membrane [2]): Active | Activity (Mitochondrial membrane [3]): Active | Activity (Mitochondrial membrane [4]): inactive | Activity (Mitochondrial membrane [5]): Active | Activity (Mitochondrial membrane [6]): inactive | Activity (HCC1428 [7]): Active | Activity (MCF-10F [8]): inactive | Activity (MCF-10F [9]): inactive | Activity (HCC1428 [10]): Active | Activity (MCF-10F [11]): inactive | Activity (MCF-10F [12]): inactive | Activity (HCC1428 [13]): inactive | Activity (HCC1428 [14]): inactive | Activity (HCC1500 [15]): Active | Activity (HCC1428 [16]): Active | Activity (HCC1428 [17]): Active | Activity (CAMA-1): Active | Activity (ZR-75-30 [18]): Active | Activity (ZR-75-30 [19]): Active | Activity (MCF-10F [20]): inactive | Activity (MCF-10F [21]): inactive | Activity (HCC1428 [22]): Active | Activity (ZR-75-30 [23]): Active | Activity (HCC1428 [24]): Active | Activity (HCC1428 [25]): inactive | Activity (HCC1500 [26]): Active | Activity (HCC1500 [27]): inactive
